The nature of this data set: Viscosity / flow property test (flow out of a vial, be swirled, direct drinking). Format: physicochemical. Here is the method:
Properties of provided compounds and compositions can be readily tested, including using a number of methods widely known and practiced in the art, in accordance with the present disclosure. For example, viscosity and/or taste of provided compounds can be readily tested. In some embodiments, viscosity was assessed by testing whether a provided compound could readily flow out of a vial or be swirled. In some embodiments, viscosity was assessed by testing whether a provided compound could be administered by direct drinking by a subject. In some embodiments, taste was assessed by testing whether a provided compound could be administered by direct drinking by a subject.

The source of these data is patent US10786476B2, “Combination therapy” (IMBRIA PHARMACEUTICALS, INC., priority 2016, dated 2020).

The structures appear in SMILES notation. Entries after “also recorded” stand apart in the source; their conditions may differ. Where two headings read alike, the source gives them in different places.

Take `CCCCCCCC(=O)OCC(COC(=O)CCC(=O)OCC(COC(=O)CCCCCCC)OC(=O)CCCCCCC)OC(=O)CCCCCCC` (stereo not shown) [Compound I-30, bis (2,3-bis(octanoyloxy)propyl) succinate]: the “flow property for formulation” value is listed as “surprisingly good; also recorded: good flow property for formulation”. For the same compound, the “viscosity compared with glycerol” value (at room temperature) is recorded as “lower viscosity than glycerol”. Besides, the “viscosity compared with glycerol” value (temperature not stated) is listed as “lower viscosity than glycerol”.
For `CCCC(=O)OCC(COC(=O)CCC(=O)OCC(COC(=O)CCC)OC(=O)CCC)OC(=O)CCC` (stereo not shown) [Compound I-29, succinate diglycerol tetra-butyric acid], the “flow property for formulation” value is “surprisingly good”. The “viscosity compared with glycerol” value (at room temperature) is recorded as “lower viscosity than glycerol”. Moreover, the “flow property for formulation” value (listed as 1-29) is on record as “good flow property for formulation”. Further, for the setting “temperature not stated”, the “viscosity compared with glycerol” value is listed as “lower viscosity than glycerol”.
